Measurements: US20260265239A1, “CRYSTAL FORM OF 2,6-PIPERIDINEDIONE COMPOUND, AND PREPARATION METHOD THEREFOR AND USE THEREOF” (ZHANGZHOU PIEN TZE HUANG PHARMACEUTICAL CO., LTD., priority 2023, published 2026)
Counter-ions that a name gives are not always drawn.

Tested on: human diffuse large B-cell lymphoma TMD-8 cells
Test: BALB/c nude mouse subcutaneous xenograft tumor model of human diffuse large B-cell lymphoma TMD-8 cells
Type: in vivo, BALB/c nude mice
Settings: for Tumor Volume (Day 0) / Tumor Volume (Day 22): mean ± SEM
Experimental: The antitumor effect of the test compound was evaluated using a BALB/c nude mouse subcutaneous xenograft tumor model of human diffuse large B-cell lymphoma TMD-8 cells.
• 1. Experimental animals: BALB/c nude mice, female, 6 to 8 weeks old. Vital River Laboratory Animal Technology Co., Ltd. • 2. Cell line: Human diffuse large B-cell lymphoma TMD-8 cells (purchased from Shanghai Huzhen Industrial Co., Ltd.).
Cell culture: Routine cell culture was conducted in RPMI-1640 medium containing 10% fetal bovine serum under 5% CO2 at 37° C. Cells were passaged based on cell growth conditions at a passage ratio of 1:3 to 1:4.
Tumor cell inoculation and grouping: TMD-8 cells in the logarithmic growth phase were harvested, counted, and resuspended in a mixture of 50% serum-free RPMI-1640 medium and 50% Matrigel. The cell concentration was adjusted to 4.0×10^7 cells/mL. The cell suspension was placed in an ice box, aspirated using a 1-mL syringe, and injected subcutaneously into the right forelimb axilla of nude mice at 200 μL per animal (0.8×10^7 cells/mouse) to establish the TMD-8 xenograft tumor model. Administration was started when the average tumor volume reached approximately 160 mm^3. The day of grouping was designated as Day 1 (D1) of the experiment, and administration was started based on animal body weight.
The pharmacodynamic experiment was conducted with a 7-day administration cycle, where the test compound was administered once daily intragastrically at 24-hour intervals, for a total of three cycles. During the experiment, animal body weight and tumor size were measured twice a week, and clinical symptoms were observed and recorded daily.
The test compound was administered at doses of 10 mg/kg, 30 mg/kg, and 100 mg/kg, with the vehicle being 10% DMSO/10% Solutol HS15/80% water. Tumor volume (TV) was calculated using the formula: ½×a×b^2, where a and b represent the measured length and width of the tumor, respectively. The tumor growth inhibition rate (TGI, %) was calculated using the formula: TGI (%)=[1−(average tumor volume at the end of administration in a treatment group−average tumor volume at the beginning of administration in this treatment group)/(average tumor volume at the end of treatment in the vehicle control group−average tumor volume at the beginning of treatment in the vehicle control group)]×100%. The relative tumor proliferation rate (T/C, %) was calculated using the formula: T/C %=TRTV/CRTV[…] (TRTV: mean RTV of the treatment group; CRTV: mean RTV of the negative control group). The relative tumor volume (RTV) was calculated based on the tumor measurement results, with the formula RTV=Vt/V0, where V0 is the tumor volume measured at the time of grouping administration (i.e., Day 1), and Vt is the tumor volume at a certain measurement time. TRTV and CRTV were derived from data on the same day.
The experimental data were calculated and subjected to relevant statistical processing using Microsoft Office Excel 2007 software. Unless otherwise specified, the data were expressed as mean±standard error (Mean±SE), and comparisons between groups were performed using t-tests.

[1] = 10 mg/kg intragastric once daily
[2] = 30 mg/kg intragastric once daily
[3] = 100 mg/kg intragastric once daily

O=C1CCC(c2noc3ccc4c(NC(=O)CN5CCN(C[C@H]6CC[C@H](n7cc(NC(=O)c8coc(-c9ccnc(NCC%10CC%10)c9)n8)c(C(F)F)n7)CC6)CC5)cccc4c23)C(=O)N1 (stereo partly drawn) [Hydrochloride of Compound of Formula (I)]
T/C (Day 22) [1]: 58%
TGI (Day 22) [1]: 49%
Tumor Volume (Day 0) [1]: 161 ± 12 mm^3
Tumor Volume (Day 22) [1]: 714 ± 153 mm^3
T/C (Day 22) [2]: 34%
TGI (Day 22) [2]: 75%
Tumor Volume (Day 0) [2]: 160 ± 9 mm^3
Tumor Volume (Day 22) [2]: 430 ± 98 mm^3
T/C (Day 22) [3]: 23%
TGI (Day 22) [3]: 88%
Tumor Volume (Day 0) [3]: 160 ± 8 mm^3
Tumor Volume (Day 22) [3]: 291 ± 70 mm^3
